Assay results: patent US7737127B2, “2-propynyl adenosine analogs having A2A agonist activity and compositions thereof” (University of Virginia Patent Foundation, priority 2001, dated 2010)
Read-outs that look alike come from different tables or passages of the source.

What was measured:
[1] = system: human neutrophils; assay: Human neutrophil oxidative activity, luminol-enhanced chemiluminescence; format: cell-based; settings: for EC50: Homo sapiens, Neutrophil, read-out: PMN oxid (-log EC50) (converted); for EC50 / PMN oxid (-log EC50): human neutrophil experiment w/o Rolipram; for PMN oxid + roli (-log EC50): human neutrophil experiment w/Rolipram
Method: Chemiluminescence Methods: Lumninol enhanced chemiluminescence, a measure of neutrophil oxidative activity, is dependent upon both superoxide production and mobilization of the granule enzyme myeloperoxidase. The light is emitted from unstable high-energy oxygen species such as hypochlorous acid and singlet oxygen generated by activated neutrophils.
The plate was incubated 5 min (37 C) and then fMLP (50 l in HA; final concentration […]) was added to all wells.
Data are presented as peak chemiluminescence as percent of activity in the absence of an adenosine agonist. The EC50 was determined using PRISM software. All compounds were tested with PMNs from three separate donors.
Lummol-enhanced chemiluminescence, a measure of neutrophil oxidative activity, is dependent upon both superoxide production and mobilization of the lysosomal granule enzyme myeloperoxidase. The light is emitted from unstable high-energy oxygen species generated by activated neutrophils. Purified neutrophils (5-10×10^5/ml) were incubated in Hanks balanced salt solution containing 0.1% human serum albumin (1 ml) with the tested A2A agonist with or without rolipram and with or without tumor necrosis factor-alpha (1 U/ml) for 30 minutes at 37° C. in a shaking water bath. […] Chemiluminescence is reported as relative peak light emitted (=height of the curve) compared to samples with tumor necrosis factor-alpha and without agonist or rolipram.

[2] = molecular target: recombinant human A2A receptors (Homo sapiens, UniProt P29274); assay: Radioligand competition binding to recombinant human A2A receptors in Sf9 cell membranes; settings: Ki from competition binding, Sf9 cell membranes
Chain of recombinant human A2A receptors (P29274 whole entry): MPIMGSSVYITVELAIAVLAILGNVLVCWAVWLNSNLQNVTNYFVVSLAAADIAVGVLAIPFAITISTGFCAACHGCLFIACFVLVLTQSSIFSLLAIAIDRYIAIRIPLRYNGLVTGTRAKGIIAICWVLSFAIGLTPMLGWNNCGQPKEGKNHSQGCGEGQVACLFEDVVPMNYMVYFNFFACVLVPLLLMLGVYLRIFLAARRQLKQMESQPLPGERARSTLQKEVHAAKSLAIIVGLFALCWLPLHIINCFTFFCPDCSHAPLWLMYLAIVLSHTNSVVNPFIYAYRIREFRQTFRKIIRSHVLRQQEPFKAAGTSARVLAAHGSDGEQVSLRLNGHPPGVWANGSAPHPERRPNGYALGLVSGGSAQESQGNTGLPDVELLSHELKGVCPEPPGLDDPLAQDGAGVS

[3] = molecular target: T1, human A1 AR (Homo sapiens, UniProt P30542); assay: Radioligand competition binding (125I-ABA) to human A1 AR in CHO K1 cell membranes; settings: for Ki: Ki from competition binding, 125I-ABA, CHO K1 cell membranes; for A1/A2A: selectivity ratio A1 over A2A
T1 sequence (P30542 1-326): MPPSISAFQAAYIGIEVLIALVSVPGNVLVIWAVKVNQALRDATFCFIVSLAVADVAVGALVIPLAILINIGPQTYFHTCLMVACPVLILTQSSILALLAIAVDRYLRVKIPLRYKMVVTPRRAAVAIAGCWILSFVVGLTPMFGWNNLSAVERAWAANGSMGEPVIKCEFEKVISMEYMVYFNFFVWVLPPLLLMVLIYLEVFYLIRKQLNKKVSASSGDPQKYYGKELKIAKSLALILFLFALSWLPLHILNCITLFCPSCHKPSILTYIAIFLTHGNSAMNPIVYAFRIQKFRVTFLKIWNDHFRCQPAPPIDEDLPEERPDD

[4] = molecular target: T2, A3 AR (Homo sapiens, UniProt P0DMS8); assay: Radioligand competition binding (125I-ABA) to human A3 AR in HEK 293 cell membranes; settings: for Ki: Ki from competition binding, 125I-ABA, HEK 293 cell membranes; for A3/A2A: selectivity ratio A3 over A2A
T2 sequence (P0DMS8 1-318): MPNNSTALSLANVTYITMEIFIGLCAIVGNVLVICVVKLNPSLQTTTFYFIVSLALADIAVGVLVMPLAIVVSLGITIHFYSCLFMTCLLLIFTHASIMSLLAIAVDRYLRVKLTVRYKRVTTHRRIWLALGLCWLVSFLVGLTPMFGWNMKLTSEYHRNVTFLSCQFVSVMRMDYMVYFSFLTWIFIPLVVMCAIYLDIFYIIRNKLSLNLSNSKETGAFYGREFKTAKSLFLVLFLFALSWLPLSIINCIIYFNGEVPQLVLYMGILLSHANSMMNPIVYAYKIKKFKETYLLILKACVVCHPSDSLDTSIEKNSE

Row | EC50 [1] | PMN oxid + roli (-log EC50) [1] | Ki ([2]; A2A ± SEM) | Ki ([3]; A1 ± SEM) | A1/A2A [3] | Ki ([4]; A3 ± SEM) | A3/A2A [4] | PMN oxid (-log EC50) [1] | Ki ([2]; read-out: A2A ± SEM) | Ki ([3]; read-out: A1 ± SEM) | Ki ([4]; read-out: A3 ± SEM) | SMILES
1 | 50.1 nM | 8.21 | 5.08 ± 0.81 nM | 19.5 ± 0.12 nM | 3.8 | 9 ± 5.5 nM | 1.8 |  |  |  |  | CCNC(=O)[C@H]1O[C@@H](n2cnc3c(N)nc(C#C[C@@]4(O)CCC[C@@H](C)C4)nc32)C(O)C1O (stereo partly drawn) [JR-3221, 5-[6-Amino-2-(1-hydroxy-3-methylcyclobexylethynyl)purin-9-yl]-3,4-dihydroxytetrahydrofuran-2-carboxylic acid ethylamide]
2 |  | 9.67 | 0.7 ± 0.07 nM | 24.2 ± 6.2 nM | 36.1 | 38.9 ± 4.8 nM | 58.1 | 8.57 |  |  |  | CCNC(=O)[C@H]1O[C@@H](n2cnc3c(N)nc(C#CC4(O)CCCCC4C)nc32)C(O)C1O (single isomer, unassigned) [JR-3181B, 5-[6-Amino-2-(1-hydroxy-2-methyl-cyclohexylethynyl)-purin-9-yl]-3,4-dihydroxytetrahydrofuran-2-carboxylic acid ethylamide]
3 | 537 nM | 7.67 | 11.1 ± 2.8 nM | 784 ± 94 nM | 70.6 | 152 ± 62 nM | 13.7 |  |  |  |  | CCNC(=O)[C@H]1O[C@@H](n2cnc3c(N)nc(C#CC4(O)CC(C)(C)CC(C)(C)C4)nc32)C(O)C1O (stereo in doubt) [JR-3163, 5-[6-Amino-2-(1-hydroxy-3,3,5,5-tetramethyl-cyclohexylethynyl)-purin-9-yl]-3,4-dihydroxytetrahydrofuran-2-carboxylic acid ethylamide]
4 | 0.661 nM | 10.07 | 0.4 ± 0.05 nM | 8.5 ± 0.3 nM | 19.3 | 12.6 ± 3.6 nM | 28.6 |  |  |  |  | CCNC(=O)[C@H]1O[C@@H](n2cnc3c(N)nc(C#CC4(O)CCCC(C)C4)nc32)C(O)C1O (stereo partly drawn) [JR-3179, 5-[6-Amino-2-(1-hydroxy-3-methyl-cyclohexylethynyl)-purin-9-yl]-3,4-dihydroxytetrahydrofuran-2-carboxylic acid ethylamide]
5 |  | 8.57 |  |  | 19.0 |  | 96.7 | 7.13 | 0.9 ± 0.38 nM | 17.5 ± 5.2 nM | 89 ± 21 nM | CC(=O)OCC1CCC(CC#Cc2nc(N)c3ncn(C4OC(CO)C(O)C4O)c3n2)CC1 (stereo not drawn) [JR-2147]
6 |  | 9.45 | 0.7 ± 0.07 nM | 15.5 ± 0.7 nM | 23.1 | 7.5 ± 4.5 nM | 11.2 | 8.5 |  |  |  | CCNC(=O)[C@H]1O[C@@H](n2cnc3c(N)nc(C#CC4(O)CCCCC4C)nc32)C(O)C1O (single isomer, unassigned) [JR-3177B, 5-[6-Amino-2-(1-hydroxy-2-methyl-cyclohexylethynyl)-purin-9-yl]-3,4-dihydroxytetrahydrofuran-2-carboxylic acid ethylamide]
7 |  | 9.9 |  |  | 10.8 |  | 6.7 | 9.14 | 0.7 ± 0.05 nM | 7.1 ± 1.1 nM | 4.4 ± 11 nM | CCNC(=O)C1OC(n2cnc3c(N)nc(C#CC4(O)CCCCC4)nc32)C(O)C1O (stereo not drawn) [JR-3089]
8 | 14.1 nM | 9.11 | 1.5 ± 0.22 nM | 14.7 ± 2.2 nM | 9.5 | 43.3 ± 18 nM | 28.1 |  |  |  |  | CCNC(=O)[C@H]1O[C@@H](n2cnc3c(N)nc(C#CC4(O)CCC(C(C)(C)C)CC4)nc32)C(O)C1O (stereo in doubt) [JR-3203, 5-[6-Amino-2-(4-tert-butyl-1-hydroxycyclohexylethynyl)purin-9-yl]-3,4-dihydroxytetrahydrofuran-2-carboxylic acid ethylamide]
9 | 4070 nM | 6.75 | 166 ± 42 nM | 801 ± 99 nM | 4.8 | 83.7 ± 30 nM | 0.5 |  |  |  |  | CCNC(=O)[C@H]1O[C@@H](n2cnc3c(N)nc(C#CC(O)(C4CCCCC4)C4CCCCC4)nc32)C(O)C1O (stereo in doubt) [JR-3139, 5-[6-Amino-2-(3,3-dicyclohexyl-3-hydroxy-prop-1-ynyl)-purin-9-yl]-3,4-dihydroxytetrahydrofuran-2-carboxylic acid ethylamide]
10 | 28.8 nM | 8.7 | 2.4 ± 0.2 nM | 28.7 ± 3.3 nM | 11.9 | 18.6 ± 4.4 nM | 7.7 |  |  |  |  | CCNC(=O)[C@H]1O[C@@H](n2cnc3c(N)nc(C#CCC4CCC(C(C)=O)CC4)nc32)C(O)C1O (stereo in doubt) [JR-3119, 5-{2-[3-(4-Acetyl-cyclohexyl)-prop-1-ynyl]-6-aminopurin-9-yl}-3,4-dihydroxytetrahydrofuran-2-carboxylic acid ethylamide]
11 | 31.6 nM | 8.64 | 1.8 ± 0.2 nM | 36 ± 2 nM | 20.0 | 28 ± 3 nM | 15.6 |  |  |  |  | CCNC(=O)[C@H]1O[C@@H](n2cnc3c(N)nc(C#CCC4CCC(C(N)=O)CC4)nc32)C(O)C1O (stereo in doubt) [JR-3055, 5-{6-Amino-2-[3-(4-carbamoyl-cyclohexyl)-prop-1-ynyl]purin-9-yl}-3,4-dihydroxytetrahydrofuran-2-carboxylic acid ethylamide]
12 |  | 8.91 | 2.25 ± 0.35 nM | 12 ± 5 nM | 5.3 | 3.34 ± 0.48 nM | 1.5 | 7.81 |  |  |  | CCNC(=O)[C@H]1O[C@@H](n2cnc3c(N)nc(C#CC4(O)CCCCNC4=O)nc32)C(O)C1O (single isomer, unassigned) [JR-3243B, 5-[6-Amino-2-(3-hydroxy-2-oxo-azepan-3-ylethynyl)purin-9-yl]-3,4-dihydroxytetrahydrofuran-2-carboxylic acid ethylamide]
13 |  | 9.34 |  |  | 1.4 |  | 6.6 | 8.43 | 0.6 ± 0.06 nM | 0.9 ± 0.05 nM | 3.9 ± 1.5 nM | CCNC(=O)C1OC(n2cnc3c(N)nc(C#CC(O)C4CCCCC4)nc32)C(O)C1O (single isomer, unassigned) [JR-3159A]
14 | 42.7 nM | 8.66 | 3.8 ± 2 nM | 14 ± 0.8 nM | 3.7 | 61 ± 6 nM | 16.3 |  |  |  |  | CCNC(=O)[C@H]1O[C@@H](n2cnc3c(N)nc(C#CCC4CCC(CN(C)C)CC4)nc32)C(O)C1O (stereo in doubt) [JR-3023, 5-{6-Amino-2-[3-(4-dimethylaminomethyl-cyclohexyl)-prop-1-ynyl]-purin-9-yl}-3,4-dihydroxytetrahydrofuran-2-carboxylic acid ethylamide]
15 | 3.47 nM | 9.11 | 1.9 ± 0.4 nM | 15.8 ± 0.48 nM | 8.3 | 42.3 ± 18.3 nM | 22.3 |  |  |  |  | CCNC(=O)[C@H]1O[C@@H](n2cnc3c(N)nc(C#CCN4CCN(C(=O)OCC)CC4)nc32)C(O)C1O (stereo in doubt) [JR-3213, 4-{3-[6-Amino-9-(5-ethylcarbamoyl-3,4-dihydroxytetrahydrofuran-2-yl)-9H-purin-2-yl]-prop-2-ynyl}-piperazine-1-carboxylic acid ethyl ester]
